Source: patent publication US20170198354A1, “METHODS OF GLUCOCORTICOID THERAPY AND DETERMINING RESPONSIVENESS THEREOF” (YISSUM RESEARCH DEVELOPMENT COMPANY OF THE HEBREW …, priority 2014, published 2017)

Legend:
Type in all cases: cell-based, human
[1] = tested on: miRNAs; assay: Deep sequencing of small RNAs; settings: CEM-C7H2, Dex 24 hrs
Procedure: RNA of cell samples was extracted by Tri-reagent. 1 μg of each sample was sequenced on an Illumina Genome Analyzer as described by Son et al, Curr Protoc Microbiol; Chapter 1: Unit 1E 4. Data analysis was performed by a miRNAkey application Ronen et al., Bioinformatics; 26(20):2615-2616.

[2] = tested on: PANK3-GRE; assay: Chromatin immunoprecipitation of PANK3-GRE; settings: CEM-C7H2
Procedure: The EpiTech ChIP OneDay kit (Qiagen) was employed. IP antibodies used were: Rabbit-IgG (Qiagen), anti-GR (cell signaling) and anti-H3K4me1 (abcam). qRT-PCR was performed by syber green enzyme with the following primers: PANK3-GRE, GAPDH positive control and MYOD1 negative control (Qiagen). GR-GRE primers were planned as follow: Fw-5′ […] 3′ and 5′ […] 3′. % Enrichment was calculated according to the formula: 2̂(CT Mean(Input)−CT Mean of (Interested fraction))*100.

[3] = tested on: miR-103; assay: miR-103 level in patient peripheral blood lymphoblasts after PRED (qRT-PCR)
Procedure: Blood and bone marrow (BM) samples of pediatric acute lymphoblastic leukemia (ALL) and chronic lymphoblastic leukemia (CLL) patients were collected from hospitals for testing, and the treatment and clinical status of these patients cross-checked in a blind manner. The outline of the study was to collect blood samples from ALL patients at diagnosis, incubate the blood with or without PRED overnight and then measure miR-103 expression levels. 11 BMs of ALL patients and 6 BMs of normal pediatric donors were analyzed. Furthermore, peripheral blood samples from 8 pediatric ALL patients and 1 CLL patient were collected. The CLL and 5 ALL samples were treated with PRED in vitro while from the additional 3 ALL patients blood was taken at diagnosis and at day 1 following PRED treatment.
The outline of the study was to collect blood samples from acute lymphoblastic leukemia (ALL) patients at diagnosis, incubate the blood with or without PRED overnight and then measure miR-103 expression levels. 11 BMs of ALL patients and 6 BMs of normal pediatric donors were analyzed. Furthermore, peripheral blood samples from 8 pediatric ALL patients and 1 chronic lymphoblastic leukemia (CLL) patient were collected. The CLL and 5 ALL samples were treated with PRED in vitro while from the additional 3 ALL patients blood was taken at diagnosis and at day 1 following PRED treatment. […]

[4] = tested on: MOLT-4, CUTLL, BJAB and SUD-136 cells; assay: Apoptosis by PI uptake (flow cytometry), GC-resistant cell lines; settings: for Conferring GC sensitivity (GCIA) by miRNA transfection: BJAB and MOLT-4 transfected with miRNA overexpression plasmids; for Conferring GC sensitivity (GCIA) by miRNA transfection / miR-103-mediated GCIA after re-expression of miR-17˜92a members: Dex 72 hrs; for miR-103-mediated GCIA after re-expression of miR-17˜92a members: miR-103 overexpressing BJAB
Text: (§1) Cell lines models of human T-cell acute lymphocytic leukemia (T-ALL) and Burkitt's lymphoma (BL), including the glucocorticoid (GC) sensitive cells represented by CEM-C7H2 (T-ALL, the sensitive sub-clone of CCRF-CEM), LOUCY (T-ALL) and DAUDI (BL), and the GC resistant cells represented by MOLT-4 (T-ALL), CUTLL (T-ALL), BJAB (BL) and SUD-136 (BL) were used. At least three kinds of cells were used in each type of cancer in order to minimize cell type specific variables. In addition, two types of malignancies were examined, T-ALL to represent leukemia behavior and BL to represent lymphoma behavior. Bone marrow cells were collected from normal donors and ALL patients. All experiments with human cells were approved by an institutional Helsinki committee and the Ministry of Health. Dexamethasone (DEX), RU486, Propidium iodide (PI), puromycin and Tri-reagent were purchased from sigma and TransIT-LT1 from Mirus.
(§2) Cells were treated with 100 nM Dex for 72 hrs. Percent apoptotic cells was determined by PI-uptake as measured in a FACS Calibur flow cytometer (BD).

[5] = tested on: GR; assay: GR expression (western blot / mRNA RQ)
Procedure: (§3) Total lysate of 10^6 cells was prepared in 50 μl protein sample buffer (PSB) ×1.5. The following antibodies were used for immuno-blotting: anti-β-Catenin and anti-GR (BD Transduction Laboratories); anti-BIM (Calbichem); anti-CDK2, anti-c-Myb, anti-DVL1 and anti-c-Myc (Santa Cruz Biotechnology); anti-cycline E1 (Cell Signaling Technology); and anti-a-Tubulin (Sigma). Immune-blots images are presented by Image Lab 3.0 software. Specific bands were cropped by transferring images to Adobe Photoshop CS5.
(§4) Total RNA was isolated using miRNeasy mini kit (QIAGEN). For Syber green assay, precipitated RNA samples were treated with Poly A Tailing kit (Ambion). c-DNA was prepared by M-MLV reverse transcriptase (Invitrogen). q-PCR amplification of mRNA was operated by Platinum SYBER Green (Invitrogen) with the following primers: FKBP5 5′ […] 3′ and 5′ GTCTCCAATCATCGGCGTT 3′, SGK1 5′ […] 3′ and 5′ […] 3′. For Taqman based PCR, c-DNA was prepared by Taqman MicroRNA Reverse Transcription Kit (Applied Biosystem). q-PCR was performed using TaqMan 2× Universal PCR Master Mix (Applied Biosystem).

[6] = tested on: BIM; assay: BIM expression (western blot / mRNA RQ)
Procedure: as §3, §4

[7] = tested on: CEM-C7H2, LOUCY and DAUDI cells; assay: Apoptosis by PI uptake (flow cytometry), GC-sensitive cell lines; settings: LOUCY overexpressing miR-103, Dex-treated
Text: as §1, §2

[8] = tested on: c-Myc; assay: c-Myc expression (western blot / RQ); settings: miR-103 overexpressing cells; further downregulated following Dex
Procedure: as §3, §4

[9] = tested on: c-Myb; assay: c-Myb expression (western blot); settings: CEM-C7H2 and MOLT-4 T-ALL cells
Procedure: as §3

[10] = tested on: DVL1 and β-Catenin; assay: DVL1 and β-Catenin expression (western blot)
Procedure: as §3

[11] = tested on: miR-17˜92a; assay: miR-17~92a cluster expression (RQ / fold change); settings: resistant BJAB
Procedure: RNA of cell samples was extracted by Tri-reagent. 1 μg of each sample was sequenced on an Illumina Genome Analyzer as described by Son et al, Curr Protoc Microbiol; Chapter 1: Unit 1E 4.
as §4, with “GTCTCCAATCATCGGCGTT” left out

[12] = tested on: CEM-C7H2, BJAB, SUD-136, DAUDI and MOLT-4 cells; assay: BRDU incorporation cellular proliferation assay; settings: miR-103 overexpressing cells, no Dex
Text: A BrdU Cell Proliferation Assay kit (Exalpha Biological, Inc) or a BrdU Flow Kit (BD Pharmingen) were used to determine cellular proliferation.

[13] = tested on: BJAB cells; assay: Total cell number / viability by flow cytometry; settings: miR-103 overexpressing BJAB
Procedure: FIGS. 6A-E: miR-103 inhibits cellular proliferation. (A) Relative Quantification of miR-103 in BM cells of […]. (B) CEM-C7H2, BJAB and miR-103 overexpressing BJAB cells were treated with Dex (24 hrs), labeled with BRDU (1 hr), fixed and analyzed by flow cytometry. (C) miR-103 overexpressing BJAB, SUD-136, DAUDI and MOLT-4 cells were treated with Dex for 72 hrs. Cellular proliferation was measured by BRDU staining. (D) miR-103 overexpressing BJAB cells were treated with Dex and/or RU486 for 72 hrs. Cell viability was determined by flow cytometry. (E) miR-103 overexpression or sponged cells were treated with Dex and then subjected to western blot analysis using anti Cyclin E1 and CDK2 antibodies. C=Untreated, D=Dex-treated.

[14] = tested on: cycline E1 and CDK2; assay: Cycline E1 and CDK2 expression (western blot / RQ); settings: miR-103 overexpressing cells
Procedure: as §3, §4

C[C@@H]1C[C@H]2[C@@H]3CCC4=CC(=O)C=C[C@]4(C)[C@@]3(F)[C@@H](O)C[C@]2(C)[C@@]1(O)C(=O)CO [Dex, Dexamethasone]
Number of miRNAs most significantly modulated by Dex [1]: 22
PANK3-GRE enrichment, anti-GR antibody, Dex-treated compared with untreated [2]: approximately 5%

C[C@]12C=CC(=O)C=C1CC[C@@H]1[C@@H]2C(=O)C[C@@]2(C)[C@H]1CC[C@]2(O)C(=O)CO [PRED, prednisone]
miR-103 level in peripheral malignant lymphoblasts after PRED ([3]; PRED good responders (PGR) ALL patients): upregulated
miR-103 level in peripheral malignant lymphoblasts after PRED ([3]; prednisone poor response (PPR) ALL patients): downregulated

miR-15b: human miRNA, SEQ ID NO: 4, overexpression plasmid (UAGCAGCACAUCAUGGUUUACA; listed as Homo sapiens)
Conferring GC sensitivity (GCIA) by miRNA transfection [4]: sensitized

miR-16: human miRNA, SEQ ID NO: 5, overexpression plasmid (UAGCAGCACGUAAAUAUUGGCG; listed as Homo sapiens)
Conferring GC sensitivity (GCIA) by miRNA transfection [4]: sensitized

miR-18a: human miRNA of miR-17˜92a, SEQ ID NO: 19, re-expressed from plasmid (UAAGGUGCAUCUAGUGCAGAUAG; listed as Homo sapiens) [reference compound]
miR-103-mediated GCIA after re-expression of miR-17˜92a members [4]: counteracted the miR-103-mediated GCIA
miR-103-mediated GR upregulation after restoring miR-18a ([5]; miR-103 transfected cells transfected with miR-18a): inhibition of the GR upregulation mediated by miR-103

miR-20a: human miRNA of miR-17˜92a, SEQ ID NO: 14, re-expressed from plasmid (UAAAGUGCUUAUAGUGCAGGUAG; listed as Homo sapiens) [reference compound]
miR-103-mediated GCIA after re-expression of miR-17˜92a members [4]: counteracted the miR-103-mediated GCIA
BIM level after restoring miR-20a ([6]; miR-103 overexpressing BJAB transfected with miR-20a): re-suppressed

miR-30d: human miRNA, SEQ ID NO: 3, overexpression plasmid (UGUAAACAUCCCCGACUGGAAG; listed as Homo sapiens)
Conferring GC sensitivity (GCIA) by miRNA transfection [4]: sensitized

miR-30e: human miRNA, SEQ ID NO: 2, overexpression plasmid (UGUAAACAUCCUUGACUGGAAG; listed as Homo sapiens)
Conferring GC sensitivity (GCIA) by miRNA transfection [4]: sensitized

miR-103: human miRNA, SEQ ID NO: 1 AGCAGCAUUGUACAGGGCUAUGA, expressed from overexpression plasmid (Table 3) (listed as Homo sapiens)
GC induced apoptosis (GCIA) in miR-103 overexpressing cells [7]: became hyper-sensitive to GCIA
Conferring GC sensitivity (GCIA) by miRNA transfection [4]: particularly effective in conferring GC sensitivity
Apoptosis of miR-103 overexpressing resistant cells with Dex ([4]; MOLT-4, CUTLL, BJAB, SUD136 overexpressing miR-103, Dex-treated): underwent significant apoptosis
Apoptosis on miR-103 overexpression without Dex ([4]; untreated cells): only a minor effect on apoptosis
c-Myc expression on miR-103 overexpression [8]: reduced
GR protein and mRNA on miR-103 overexpression ([5]; miR-103 overexpressing cells): both GR protein and mRNA upregulation
BIM expression on miR-103 overexpression ([6]; protein and mRNA, augmented by Dex): induced BIM upregulation both at the protein and mRNA levels
c-Myb expression on miR-103 overexpression [9]: downregulates
DVL1 and β-Catenin on miR-103 overexpression ([10]; Burkitt's lymphoma cells): downregulated
DVL1 expression on miR-103 overexpression ([10]; CEM-C7H2): even upregulated
β-Catenin level on miR-103 overexpression ([10]; CEM-C7H2): unaffected
β-Catenin level on miR-103 overexpression ([10]; MOLT4): even upregulated
miR-17˜92a expression on miR-103 overexpression [11]: reduced expression
Cell proliferation (BRDU) by miR-103 itself [12]: significantly reduced cell proliferation
Total cell number in the culture [13]: reduced the total cell number
Cycline E1 and CDK2 expression on miR-103 overexpression [14]: downregulated
